Test results from patent US9580463B2 (BRISTOL-MYERS SQUIBB COMPANY, priority 2013, dated 2017).
pEC50: −log10 of the molar value. Like-named read-outs stand apart in the source and are kept apart here.

Columns and labels:
[1] = rcm bond, 15-membered ring, Hoveyda-Grubbs II, DCE, 80.0 °C
[2] = test system: HCV genotype 1a (H77 strain) replicon in HUH-7 cells; assay: HCV replicon luciferase reporter assay, genotype 1a; assay type: cell-based; conditions: Hepatitis C virus, 72 h, genotype 1a replicon, 3 days incubation
Outline: (§1)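 Twenty-point, threefold compound titrations (0.5% DMSO) were incubated 3 days at 37 °C with 3.0×10^3 HUH-7 cells/well in 4% FCS. The cells stably carried luciferase replicons: genotype 1b Con1 (S1179I) or 1a H77 (NS3 P1496L, NS5A S2204I). Renilla signal was read after 2 h with 7.5 μM EnduRen, and EC50 was taken from a four-parameter logistic fit. Cytotoxicity (CC50) was measured by Cell Titer-Blue, 8 h.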

[3] = test system: HCV genotype 1b (Con1) replicon in HUH-7 cells; assay: HCV replicon luciferase reporter assay, genotype 1b; assay type: cell-based; conditions: Hepatitis C virus, 72 h, genotype 1b replicon, 3 days incubation
Outline: as §1

Structure (SMILES): COC[C@@H]1CC(C)CC/C=C\[C@@H]2C[C@@]2(C(=O)NS(=O)(=O)C2CC2)NC(=O)[C@@H]2C[C@@H](O)CN2C(=O)[C@H]1NC(=O)OC(C)(C)C (some centres unmarked)
- ring closure, isolated yield ([1]; from C=CCCC(C)C[C@@H](COC)[C@H](NC(=O)OC(C)(C)C)C(=O)N1C[C@H](O)C[C@H]1C(=O)N[C@]1(C(=O)NS(=O)(=O)C2CC2)C[C@H]1C=C, 9.2 mM, 4.0 h): 71%

Structure (SMILES): COC[C@@H]1CC(C)CC/C=C\[C@@H]2C[C@@]2(C(=O)NS(=O)(=O)C2(CF)CC2)NC(=O)[C@@H]2C[C@@H](O)CN2C(=O)[C@H]1NC(=O)OC(C)(C)C (some centres unmarked)
- ring closure, isolated yield ([1]; from tert-butyl (2S,3R)-1-(((2S,4R)-2-(((1R,2S)-1-(((1-(fluoromethyl)cyclopropyl)sulfonyl)carbamoyl)-2-vinylcyclopropyl)carbamoyl)-4-hydroxypyrrolidin-1-yl)-3-(methoxymethyl)-5-methyl-1-oxonon-8-en-2-yl)carbamate, 5.0 mM): 45%

Structure (SMILES): COC[C@@H]1CC(C)CC/C=C\[C@@H]2C[C@@]2(C(=O)NS(=O)(=O)C2(C)CC2)NC(=O)[C@@H]2C[C@@H](O)CN2C(=O)[C@H]1NC(=O)OC(C)(C)C (some centres unmarked)
- ring closure, isolated yield ([1]; from C=CCCC(C)C[C@@H](COC)[C@H](NC(=O)OC(C)(C)C)C(=O)N1C[C@H](O)C[C@H]1C(=O)N[C@]1(C(=O)NS(=O)(=O)C2(C)CC2)C[C@H]1C=C, 7.5 mM): 76%

Structure (SMILES): COC[C@@H]1CCCC/C=C\[C@@H]2C[C@@]2(C(=O)NS(=O)(=O)C2CC2)NC(=O)[C@@H]2C[C@@H](O)CN2C(=O)[C@H]1NC(=O)OC(C)(C)C
- ring closure, isolated yield ([1]; from C=CCCCC[C@@H](COC)[C@H](NC(=O)OC(C)(C)C)C(=O)N1C[C@H](O)C[C@H]1C(=O)N[C@]1(C(=O)NS(=O)(=O)C2CC2)C[C@H]1C=C, 10.8 mM, 2.0 h): 52%

Structure (SMILES): COC[C@@H]1CCCC/C=C\[C@@H]2C[C@@]2(C(=O)NS(=O)(=O)C2(C)CC2)NC(=O)[C@@H]2C[C@@H](O)CN2C(=O)[C@H]1NC(=O)OC(C)(C)C
- ring closure, isolated yield ([1]; from C=CCCCC[C@@H](COC)[C@H](NC(=O)OC(C)(C)C)C(=O)N1C[C@H](O)C[C@H]1C(=O)N[C@]1(C(=O)NS(=O)(=O)C2(C)CC2)C[C@H]1C=C, 24.4 mM, 2.0 h): 55%

Structure (SMILES): COC[C@@H]1C[C@H](C)CC/C=C\[C@@H]2C[C@@]2(C(=O)NS(=O)(=O)C2(C)CC2)NC(=O)[C@@H]2C[C@@H](Oc3nc4cc(OC)ccc4nc3C(F)(F)F)CN2C(=O)[C@H]1NC(=O)OC(C)(C)C [Compound 1028, tert-butyl ((2R,6S,7R,9R,13aS,14aR,16aS,Z)-2-((7-methoxy-3-(trifluoromethyl)quinoxalin-2-yl)oxy)-7-(methoxymethyl)-9-methyl-14a-(((1-methylcyclopropyl)sulfonyl)carbamoyl)-5,16-dioxo-1,2,3,5,6,7,8,9,10,11,13a,14,14a,15,16,16a-hexadecahydrocyclopropa[e]pyrrolo[1,2-a][1,4]diazacyclopentadecin-6-yl)carbamate]
- pEC50 ([2]; read-out: LE_1a (EC50, range)): 9.00 to 9.29
- pEC50 ([3]; read-out: LE_1b (EC50, range)): 9.30 to 10.00

Structure (SMILES): COC[C@@H]1C[C@H](C)CC/C=C\[C@@H]2C[C@@]2(C(=O)NS(=O)(=O)C2(C)CC2)NC(=O)[C@@H]2C[C@@H](Oc3nccc4cc(OC)ccc34)CN2C(=O)[C@H]1NC(=O)OC(C)(C)C [Compound 1005, tert-butyl ((2R,6S,7R,9R,13aS,14aR,16aS,Z)-2-((6-methoxyisoquinolin-1-yl)oxy)-7-(methoxymethyl)-9-methyl-14a-(((1-methylcyclopropyl)sulfonyl)carbamoyl)-5,16-dioxo-1,2,3,5,6,7,8,9,10,11,13a,14,14a,15,16,16a-hexadecahydrocyclopropa[e]pyrrolo[1,2-a][1,4]diazacyclopentadecin-6-yl)carbamate]
- pEC50 ([2]; read-out: LE_1a (EC50, range)): 8.30 to 9.00
- pEC50 ([3]; read-out: LE_1b (EC50, range)): 9.30 to 10.00

Structure (SMILES): COC[C@@H]1CCCC/C=C\[C@@H]2C[C@@]2(C(=O)NS(=O)(=O)C2CC2)NC(=O)[C@@H]2C[C@@H](Oc3nccc4cc(OC)c(F)cc34)CN2C(=O)[C@H]1NC(=O)OC(C)(C)C [Compound 1022]
- pEC50 ([2]; read-out: LE_1a (EC50, range)): 8.30 to 9.00
- pEC50 ([3]; read-out: LE_1b (EC50, range)): 8.30 to 9.00

Structure (SMILES): COC[C@@H]1C[C@H](C)CC/C=C\[C@@H]2C[C@@]2(C(=O)NS(=O)(=O)C2(C)CC2)NC(=O)[C@@H]2C[C@@H](Oc3nc4cc(OC)ccc4nc3C(C)C)CN2C(=O)[C@H]1NC(=O)OC(C)(C)C [Compound 1030, tert-butyl ((2R,6S,7R,9R,13aS,14aR,16aS,Z)-2-((3-isopropyl-7-methoxyquinoxalin-2-yl)oxy)-7-(methoxymethyl)-9-methyl-14a-(((1-methylcyclopropyl)sulfonyl)carbamoyl)-5,16-dioxo-1,2,3,5,6,7,8,9,10,11,13a,14,14a,15,16,16a-hexadecahydrocyclopropa[e]pyrrolo[1,2-a][1,4]diazacyclopentadecin-6-yl)carbamate]
- pEC50 ([2]; read-out: LE_1a (EC50, range)): 6.21 to 7.46
- pEC50 ([3]; read-out: LE_1b (EC50, range)): 7.46 to 8.30

Structure (SMILES): COC[C@@H]1C[C@H](C)CC/C=C\[C@@H]2C[C@@]2(C(=O)NS(=O)(=O)C2CC2)NC(=O)[C@@H]2C[C@@H](Oc3nc4cc(OC)ccc4nc3C(F)(F)F)CN2C(=O)[C@H]1NC(=O)OC(C)(C)C(F)(F)F [Compound 1041, 1,1,1-trifluoro-2-methylpropan-2-yl ((2R,6S,7R,9R,13aS,14aR,16aS,Z)-14a-((cyclopropylsulfonyl)carbamoyl)-2-((7-methoxy-3-(trifluoromethyl)quinoxalin-2-yl)oxy)-7-(methoxymethyl)-9-methyl-5,16-dioxo-1,2,3,5,6,7,8,9,10,11,13a,14,14a,15,16,16a-hexadecahydrocyclopropa[e]pyrrolo[1,2-a][1,4]diazacyclopentadecin-6-yl)carbamate]
- pEC50 ([2]; read-out: LE_1a (EC50)): 9.21
- pEC50 ([2]; read-out: LE_1a (EC50, range)): 9.00 to 9.29
- pEC50 ([3]; read-out: LE_1b (EC50)): 9.12
- pEC50 ([3]; read-out: LE_1b (EC50, range)): 9.00 to 9.29
